Values of other authors as cited in US20230149402A1, “SOLID PHARMACEUTICAL PREPARATION, PREPARATION METHOD THEREFOR AND USE THEREOF” (SHANGHAI HAIYAN PHARMACEUTICAL TECHNOLOGY CO., LTD, priority 2020, published 2023).

Tests used:
hOX1R = target: T1, hOX1R (Homo sapiens, UniProt O43613); details: FLIPR, read-out: IC50, inhibitory effect on OX1 GPCR receptor
T1 sequence (O43613 1-425): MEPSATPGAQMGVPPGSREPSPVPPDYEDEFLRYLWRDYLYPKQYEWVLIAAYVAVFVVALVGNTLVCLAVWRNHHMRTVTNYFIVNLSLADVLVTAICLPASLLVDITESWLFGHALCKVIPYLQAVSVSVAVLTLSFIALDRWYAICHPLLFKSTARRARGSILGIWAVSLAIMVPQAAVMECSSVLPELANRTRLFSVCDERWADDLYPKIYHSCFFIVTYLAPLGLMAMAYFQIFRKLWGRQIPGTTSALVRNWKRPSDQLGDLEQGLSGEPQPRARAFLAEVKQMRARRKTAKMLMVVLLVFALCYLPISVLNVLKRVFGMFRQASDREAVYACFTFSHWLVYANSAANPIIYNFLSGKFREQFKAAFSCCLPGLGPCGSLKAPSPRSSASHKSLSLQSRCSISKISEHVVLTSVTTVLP

hOX2R = target: T2, hOX2R (Homo sapiens, UniProt O43614); details: FLIPR, read-out: IC50, inhibitory effect on OX2 GPCR receptor
T2 sequence (O43614 1-444): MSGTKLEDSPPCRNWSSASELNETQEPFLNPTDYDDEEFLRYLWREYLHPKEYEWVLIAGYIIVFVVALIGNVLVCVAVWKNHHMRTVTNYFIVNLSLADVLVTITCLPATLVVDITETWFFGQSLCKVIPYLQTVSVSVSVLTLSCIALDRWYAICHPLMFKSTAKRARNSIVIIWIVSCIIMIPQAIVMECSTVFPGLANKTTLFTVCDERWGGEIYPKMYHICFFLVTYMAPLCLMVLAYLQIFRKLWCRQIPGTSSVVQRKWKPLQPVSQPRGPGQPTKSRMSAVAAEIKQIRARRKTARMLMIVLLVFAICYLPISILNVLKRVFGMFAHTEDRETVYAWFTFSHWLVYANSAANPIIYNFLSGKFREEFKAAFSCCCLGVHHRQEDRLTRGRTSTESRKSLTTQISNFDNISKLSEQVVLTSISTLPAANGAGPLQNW

IC50 (hOX1R): 20 nM
IC50 (hOX2R): 36 nM
Compound: Cc1ccc(-c2ncccn2)c(C(=O)N2[C@H]3CC[C@@H](COc4ccc(F)cn4)[C@@H]2CC3)c1 [compound of formula (II), ((1S,2R,5S)-2-(((5-fluoropyridin-2-yl)oxy)methyl)-8-azabicyclo[3.2.1]octan-8-yl)(5-methyl-2-(pyrimidin-2-yl)phenyl)methanone]
